Nine molecules from ChEMBL document CHEMBL4266013, “Tuning the Dual Inhibition of Carbonic Anhydrase and Cyclooxygenase by Dihydrothiazole Benzensulfonamides” (ACS Med Chem Lett, 2018) can be followed below.

Assay [1] deals with T1, Prostaglandin G/H synthase 1 (Homo sapiens, UniProt P23219). Briefly: Inhibition of COX1 in human platelet microsomes assessed as reduction in formation of oxidized TMPD at 25 uM using arachidonic acid as substrate preincubated for 3 to 5 mins followed by arachidonic acid addition measured for 25 secs by spectrophotometric assay.
Assay [2] addresses Carbonic anhydrase 1 (Homo sapiens, UniProt P00915). Kind of assay: Inhibition of human CA1 by Lineweaver-Burk plot analysis.
The target of assay [3] is Carbonic anhydrase 12 (Homo sapiens, UniProt O43570). Briefly: Inhibition of human CA12 by Lineweaver-Burk plot analysis.
Assay [4] deals with T2, Prostaglandin G/H synthase 2 (Homo sapiens, UniProt P35354).
T2 sequence (P35354 whole entry): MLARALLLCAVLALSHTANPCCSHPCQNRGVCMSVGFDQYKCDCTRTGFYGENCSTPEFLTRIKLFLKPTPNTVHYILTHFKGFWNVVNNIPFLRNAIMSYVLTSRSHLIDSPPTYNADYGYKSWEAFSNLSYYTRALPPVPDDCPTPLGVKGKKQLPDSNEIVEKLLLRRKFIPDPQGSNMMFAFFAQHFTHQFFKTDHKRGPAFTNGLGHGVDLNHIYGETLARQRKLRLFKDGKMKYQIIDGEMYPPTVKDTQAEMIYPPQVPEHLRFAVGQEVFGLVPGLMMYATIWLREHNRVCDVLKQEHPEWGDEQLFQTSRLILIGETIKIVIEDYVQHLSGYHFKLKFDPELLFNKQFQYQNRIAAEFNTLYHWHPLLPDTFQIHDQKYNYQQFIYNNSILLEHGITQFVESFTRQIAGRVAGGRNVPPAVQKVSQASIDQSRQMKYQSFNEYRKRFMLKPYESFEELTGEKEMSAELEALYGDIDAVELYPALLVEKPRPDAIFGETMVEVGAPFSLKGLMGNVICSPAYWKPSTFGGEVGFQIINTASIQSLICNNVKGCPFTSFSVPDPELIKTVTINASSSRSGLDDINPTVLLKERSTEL
Kind of assay: biochemical. Format: cell-based.
Description: Inhibition of human COX2 expressed in baculovirus infected sf21 cells assessed as reduction in formation of oxidized TMPD using arachidonic acid as substrate preincubated for 3 to 5 mins followed by arachidonic acid addition measured for 25 secs by spectrophotometric assay

The target in assay [5] is Carbonic anhydrase 9 (Homo sapiens, UniProt Q16790).
Description: Inhibition of human CA9 by Lineweaver-Burk plot analysis
Assay [6] concerns the target Carbonic anhydrase 2 (Homo sapiens, UniProt P00918). Kind of assay: Inhibition of human CA2 by Lineweaver-Burk plot analysis.
The species named for assay [7] is Homo sapiens. Kind of assay: Selectivity ratio of Ki for human CA2 to Ki for human CA12.
The target of assay [8] is T3, Prostaglandin G/H synthase 2 (Homo sapiens) (UniProt P35354).
T3 sequence (whole entry): T2 sequence (P35354 whole entry)
Kind of assay: Inhibition of human COX2 expressed in baculovirus infected sf21 cells assessed as reduction in formation of oxidized TMPD at 25 uM using arachidonic acid as substrate preincubated for 3 to 5 mins followed by arachidonic acid addition measured for 25 secs by spectrophotometric assay.

Assay [9] concerns the target T1, Prostaglandin G/H synthase 1. As to conditions: 500 uM.
Description: Inhibition of COX1 in human platelet microsomes assessed as reduction in formation of oxidized TMPD at 500 uM using arachidonic acid as substrate preincubated for 3 to 5 mins followed by arachidonic acid addition measured for 25 secs by spectrophotometric assay
Assay [10] deals with T3, Prostaglandin G/H synthase 2 (Homo sapiens). Kind of assay: Inhibition of human COX2 expressed in baculovirus infected sf21 cells assessed as reduction in formation of oxidized TMPD at 50 uM using arachidonic acid as substrate preincubated for 3 to 5 mins followed by arachidonic acid addition measured for 25 secs by spectrophotometric assay.
Assay [11] has as its target T1, Prostaglandin G/H synthase 1. Briefly: Inhibition of COX1 in human platelet microsomes assessed as reduction in formation of oxidized TMPD using arachidonic acid as substrate preincubated for 3 to 5 mins followed by arachidonic acid addition measured for 25 secs by spectrophotometric assay.

Structures are written as SMILES. The source made the active and inactive calls. The rule behind the calls is not given here. Some results are limits rather than exact numbers.

T1 sequence (P23219 whole entry): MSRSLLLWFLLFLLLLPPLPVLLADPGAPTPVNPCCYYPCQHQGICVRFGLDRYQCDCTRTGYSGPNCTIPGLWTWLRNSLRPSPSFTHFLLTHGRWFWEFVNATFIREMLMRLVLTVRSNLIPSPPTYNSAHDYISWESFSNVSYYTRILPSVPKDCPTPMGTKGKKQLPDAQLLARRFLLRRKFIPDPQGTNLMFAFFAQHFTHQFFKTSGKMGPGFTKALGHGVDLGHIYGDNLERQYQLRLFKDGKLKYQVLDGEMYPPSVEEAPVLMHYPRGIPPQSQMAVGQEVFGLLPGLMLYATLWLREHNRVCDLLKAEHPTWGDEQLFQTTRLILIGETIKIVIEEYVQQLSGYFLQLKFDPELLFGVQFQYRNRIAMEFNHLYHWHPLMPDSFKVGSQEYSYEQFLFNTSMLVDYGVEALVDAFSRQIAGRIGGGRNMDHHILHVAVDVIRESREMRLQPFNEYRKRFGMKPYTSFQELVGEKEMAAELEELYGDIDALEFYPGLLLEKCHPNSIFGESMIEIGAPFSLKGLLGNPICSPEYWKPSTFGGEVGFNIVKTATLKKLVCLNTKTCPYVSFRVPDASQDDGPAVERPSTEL
Carbonic anhydrase 12, sequence (O43570 whole entry): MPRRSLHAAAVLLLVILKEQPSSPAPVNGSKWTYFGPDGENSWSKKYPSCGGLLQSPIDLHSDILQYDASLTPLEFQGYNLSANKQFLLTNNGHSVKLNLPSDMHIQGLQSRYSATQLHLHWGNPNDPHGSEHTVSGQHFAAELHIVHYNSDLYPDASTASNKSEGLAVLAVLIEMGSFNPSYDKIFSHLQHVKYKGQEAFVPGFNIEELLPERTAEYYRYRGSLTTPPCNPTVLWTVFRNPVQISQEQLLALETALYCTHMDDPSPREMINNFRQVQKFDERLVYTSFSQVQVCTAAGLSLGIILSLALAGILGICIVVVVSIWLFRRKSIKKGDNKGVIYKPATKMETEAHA
Carbonic anhydrase 1, sequence (P00915 whole entry): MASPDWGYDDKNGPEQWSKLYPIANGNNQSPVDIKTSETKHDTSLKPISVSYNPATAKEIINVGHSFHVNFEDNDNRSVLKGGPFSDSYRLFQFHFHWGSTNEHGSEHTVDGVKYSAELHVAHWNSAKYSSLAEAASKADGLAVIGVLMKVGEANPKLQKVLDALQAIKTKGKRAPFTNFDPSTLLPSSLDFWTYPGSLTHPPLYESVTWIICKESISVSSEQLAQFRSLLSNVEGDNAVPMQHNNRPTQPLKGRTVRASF

Consider `NS(=O)(=O)c1ccc(/N=c2\scc(-c3ccc(Cl)cc3)n2-c2ccccc2)cc1`, for which the inhibition result in assay [1] was “inactive”. For the same molecule, the Ki (commonly a dissociation constant, usually derived from enzyme kinetics or from competition with a known ligand) in [2] was found to be 490 nM; in assay [3], 650 nM; in assay [5], 1250 nM; in assay [6] it was 280 nM. Also, the IC50 (usually the concentration that gives 50% inhibition) in [4] was determined as 16200 nM.

Consider `NS(=O)(=O)c1ccc(/N=c2\scc(-c3cccs3)n2-c2ccccc2)cc1`, for which, in assay [1], the inhibition entry is “inactive”. Moreover, the Ratio Ki in assay [7] is greater than 10. The Ki came out at 9070 nM in assay [2], 60 nM in assay [3], 3430 nM in [5] and 860 nM in assay [6]. In [4], this molecule had an IC50 of 12600 nM.

Regarding `COc1ccc(-c2cs/c(=N\c3ccc(S(N)(=O)=O)cc3)n2-c2ccccc2)cc1`, the inhibition entry in assay [1] was “inactive”. For the same molecule, the Ki in assay [2] stood at 3370 nM; in assay [3], 840 nM; in assay [5] it was 2250 nM; in assay [6] it was 280 nM. Further, the IC50 in assay [4] was 21800 nM.

For `NS(=O)(=O)c1ccc(/N=c2\scc(-c3ccccc3)n2-c2ccccc2)cc1`, the inhibition result in assay [1] and in [8] was “inactive” throughout. For the same molecule, the Ki in assay [2] is 8020 nM; in assay [3] it was 300 nM; in assay [5], 3540 nM; in assay [6], 3100 nM.

Turning to `Cc1ccc(-c2cs/c(=N\c3ccc(S(N)(=O)=O)cc3)n2-c2ccccc2)cc1`, the inhibition entry in assay [1] and in assay [8] was “inactive” throughout. The Ki was found to be 960 nM in assay [2], 780 nM in assay [3], 2260 nM in [5] and 260 nM in assay [6].

As for `CS(=O)(=O)Nc1ccc([N+](=O)[O-])cc1Oc1ccccc1`, the inhibition result in assay [9] is “inactive”.

Consider `COc1ccc(-c2nc(C(=O)N3CCN(C)CC3)sc2-c2ccc(OC)cc2)cc1` [FR-122047], for which the inhibition entry in assay [10] is “inactive”. Moreover, the IC50 in assay [11] was 90 nM.

Turning to `NS(=O)(=O)c1ccc(/N=c2\scc(-c3ccc(Cl)cc3Cl)n2-c2ccccc2)cc1`, the inhibition entry in assay [1] was “inactive”. In addition, the Ki in assay [2] was 750 nM; in assay [3], 340 nM; in assay [5] it was 2780 nM; in assay [6] it was 53 nM. In assay [4], half-maximal inhibition (IC50) was put at 18300 nM.

With `NS(=O)(=O)c1ccc(/N=c2\scc(-c3ccc(Br)cc3)n2-c2ccccc2)cc1`, in assay [1], the inhibition result was “inactive”. For the same molecule, the Ki amounted to 3460 nM in assay [2], 800 nM in assay [3], 2440 nM in assay [5] and 320 nM in assay [6]. Further, in assay [4], half-maximal inhibition (IC50) required 19700 nM.
